{"source": "patent US20070218189A1", "about": "“Reduction inhibitory agent for active oxygen eliminating-activity” (KABUSHIKI KAISHA HAYASHIBARA SEIBUTSU KAGAKU KENYUJO, priority 2001, published 2007)", "type_in_all_cases": "biochemical", "key": {"[1]": {"test_system": "superoxide, formed in a hypoxanthine-xanthine oxidase system", "assay": "Active oxygen eliminating activity of powdery carrot compositions with saccharides before and after storage, electron spin resonance (ESR) test (Experiment 4)", "method": "Fresh raw carrots were disrupted as Experiment 3, and saccharides were respectively added to the mixture and dissolved therein to give a concentration of 10%, d.s.b. The solutions were dried under a reduced pressure at 40° C. for one day, dried in vacuo at the same temperature for 17 hours, and pulverized by a mixer into powdery carrot compositions. […] About 100 g each of the compositions was placed and sealed in a 500-ml polystyrene container, and stored at 40° C. for seven or fourteen days. The active oxygen eliminating activities of the compositions before and after storage were compared with each other. The active oxygen eliminating activity was assayed by the electron spin resonance (ESR) test by Toshihiko OZAWA in BUNSEKI, Vol. 2, pp. 68-74 (2000), and the level of superoxide, formed in a hypoxanthine-xanthine oxidase system, was assayed by the spin-trapping with 5,5-dimethyl-1-pyrroline-N-oxide in ESR."}, "[2]": {"test_system": "superoxide, formed in a xanthine-xanthine oxidase system", "assay": "Active oxygen eliminating activity of powdery vegetable compositions with or without cyclotetrasaccharide before and after storage (Experiment 6)", "details": "carrot, onion, Japanese radish, cabbage, spinach, cucumber, pumpkin; in words"}, "[3]": {"test_system": "superoxide, formed in a xanthine-xanthine oxidase system", "assay": "Active oxygen eliminating activity of powdery carrot compositions with saccharides before and after storage, nitro blue tetrazolium (NBT) test (Experiment 3)", "method": "(§1) Fresh raw carrots were disrupted by a mixer, and saccharides were respectively added to the mixture and dissolved therein to give a concentration of 10%, d.s.b. The solutions were dried under a reduced pressure at 40° C. for two days, dried in vacuo at the same temperature for 24 hours, and pulverized by a mixer into powdery carrot compositions. […] An about 100 g each of the compositions was placed and sealed in a 500-ml polystyrene container, and stored at 40° C. for seven days. The active oxygen eliminating activities of the compositions before and after storage were compared with each other. The active oxygen eliminating activity was assayed by the nitro blue tetrazolium (NBT) test by Toshio IMANARI et al. in Igakuno Ayumi, Vol. 101, pp. 496-497 (1977), and the level of superoxide, formed in a xanthine-xanthine oxidase system, was assayed by quantifying calorimetrically the content of formazan formed by reducing NBT. As a control, refined water was used as a test solution. One unit activity of active oxygen eliminating activity was defined as that inhibited 50% formazan formation as compared with the control. […] Thus cyclotetrasaccharide is preferable as an effective ingredient for a reduction inhibitory agent for active oxygen eliminating activity."}, "[4]": {"test_system": "active oxygen", "assay": "Active oxygen eliminating activity of superoxide dismutase and antioxidants in cyclotetrasaccharide solution or water before and after storage (Experiment 7)", "details": "30% (w/v) cyclotetrasaccharide solution; superoxide dismutase, α-glucosyl hesperidin, α-glucosyl rutin, gallic acid, catechin; in words", "method": "In one milliliter of 30% (w/v) cyclotetrasaccharide solution, which is prepared by using cyclotetrasaccharide obtained in Experiment 2, was dissolved five micrograms (μ g) of superoxide dismutase from a horseradish commercialized by Sigma Chemical Co., St. Louis, USA, 10 mg of α-glucosyl hesperidin commercialized by Hayashibara Biochemical Laboratories, Inc., Okayama Japan, 10 mg of α-glucosyl rutin commercialized by Hayashibara Biochemical Laboratories, Inc., Okayama, Japan, 250 μg of gallic acid commercialized by Wako Pure Chemical Industries, Ltd., Tokyo, Japan, or 50 μg of catechin to obtain a liquid composition. Each of the compositions was placed in a glass test tube, sealed with a rubber cap, and stored under a dark condition. As a control, water was used in place of the cyclotetrasaccharide solution."}, "[5]": {"test_system": "superoxide, formed in a xanthine-xanthine oxidase system", "assay": "Influence of cyclotetrasaccharide concentration on active oxygen eliminating activity of powdery carrot compositions, NBT test (Experiment 5)", "details": "for Activity (unit/g) After storage / Percentage of residual activity (%): 40° C. seven days", "method": "as §1\nSimilarly as in Experiment 3, cyclotetrasaccharide was respectively mixed with and dissolved in disrupted carrots to give concentrations of 0-20%, d.s.b. The resulting mixtures were dried in vacuo at 40° C. for 24 hours, and pulverized into powdery carrot compositions. Similarly as in Experiment 3, each powdery composition was placed and sealed in a polystyrene container, and stored at 40° C. for seven days for evaluating the reduction inhibitory activity for active oxygen activity. The active oxygen eliminating activity of one gram each of powdery compositions before and after storage was measured by the method in Experiment 3."}, "[6]": {"details": "powdery carrot composition, saccharide added at 10% d.s.b., stored at 40° C. for seven days"}, "[7]": {"details": "0.1% cyclotetrasaccharide added to carrot (content 1.0% d.s.b.)"}, "[8]": {"details": "0.5% cyclotetrasaccharide added to carrot (content 4.9% d.s.b.)"}, "[9]": {"details": "1.0% cyclotetrasaccharide added to carrot (content 9.4% d.s.b.)"}, "[10]": {"details": "2.5% cyclotetrasaccharide added to carrot (content 20.7% d.s.b.)"}, "[11]": {"details": "5.0% cyclotetrasaccharide added to carrot (content 34.2% d.s.b.)"}, "[12]": {"details": "10.0% cyclotetrasaccharide added to carrot (content 51.1% d.s.b.)"}, "[13]": {"details": "20.0% cyclotetrasaccharide added to carrot (content 67.6% d.s.b.)"}}, "data": [{"smiles": "OCC1OC2OCC3O[C@H](O[C@H]4C(O)C(CO)OC(OCC5O[C@H](O[C@@H](C1O)C2O)C(O)C(O)[C@@H]5O)C4O)C(O)C(O)[C@@H]3O", "note": "(stereo partly drawn) [Cyclotetrasaccharide, cyclo{→6)-α-D-glucopyranosyl-(1→3)-α-D-glucopyranosyl-(1→6)-α-D-glucopyranosyl-(1→3)-α-D-glucopyranosyl-(1→}]", "values": [{"measurement": "Activity (unit/g) Before storage", "setting": "[1]; powdery carrot composition, saccharide added at 10% d.s.b., before storage", "value": 186, "unit": "unit/g"}, {"measurement": "Activity (unit/g) After two weeks storage", "setting": "[1]; powdery carrot composition, stored at 40° C. for fourteen days", "value": 66, "unit": "unit/g"}, {"measurement": "percentage of residual activity After two weeks storage", "setting": "[1]; powdery carrot composition, stored at 40° C. for fourteen days, numerals in parentheses", "value": 36, "unit": "%"}, {"measurement": "Activity (unit/g) After one week storage", "setting": "[1]; powdery carrot composition, stored at 40° C. for seven days", "value": 88, "unit": "unit/g"}, {"measurement": "percentage of residual activity After one week storage", "setting": "[1]; powdery carrot composition, stored at 40° C. for seven days, numerals in parentheses", "value": 47, "unit": "%"}, {"measurement": "residual percentage for active oxygen eliminating activity among the saccharides tested", "setting": "[1]; powdery carrot compositions, in words", "value": "highest residual percentage"}, {"measurement": "reduction inhibitory activity for active oxygen eliminating activity by incorporating cyclotetrasaccharide", "setting": "[2]", "value": "observed in many vegetables"}, {"measurement": "Activity (unit/g) After storage", "setting": "[3]; [6]", "value": 390, "unit": "unit/g"}, {"measurement": "Percentage of residual activity (%)", "setting": "[3]; [6]", "value": 66, "unit": "%"}, {"measurement": "Activity (unit/g) Before storage", "setting": "[3]; powdery carrot composition, saccharide added to disrupted carrots at 10% d.s.b., before storage", "value": 590, "unit": "unit/g"}, {"measurement": "residual percentage / reduction inhibitory activity for active oxygen eliminating activity among the saccharides tested", "setting": "[3]; powdery carrot compositions, 40° C. seven days, in words", "value": "highest residual percentage"}, {"measurement": "reducing inhibitory activity for active oxygen eliminating activity of plant antioxidants", "setting": "[4]", "value": "effective reducing inhibitory activity"}, {"measurement": "Activity (unit/g) After storage", "setting": "[5]; [7]", "value": 390, "unit": "unit/g"}, {"measurement": "Percentage of residual activity (%)", "setting": "[5]; [7]", "value": 42, "unit": "%"}, {"measurement": "Activity (unit/g) Before storage", "setting": "[5]; [7]", "value": 930, "unit": "unit/g"}, {"measurement": "Activity (unit/g) After storage", "setting": "[5]; [8]", "value": 470, "unit": "unit/g"}, {"measurement": "Percentage of residual activity (%)", "setting": "[5]; [8]", "value": 57, "unit": "%"}, {"measurement": "Activity (unit/g) Before storage", "setting": "[5]; [8]", "value": 820, "unit": "unit/g"}, {"measurement": "Activity (unit/g) After storage", "setting": "[5]; [9]", "value": 450, "unit": "unit/g"}, {"measurement": "Percentage of residual activity (%)", "setting": "[5]; [9]", "value": 61, "unit": "%"}, {"measurement": "Activity (unit/g) Before storage", "setting": "[5]; [9]", "value": 740, "unit": "unit/g"}, {"measurement": "Activity (unit/g) After storage", "setting": "[5]; [10]", "value": 460, "unit": "unit/g"}, {"measurement": "Percentage of residual activity (%)", "setting": "[5]; [10]", "value": 66, "unit": "%"}, {"measurement": "Activity (unit/g) Before storage", "setting": "[5]; [10]", "value": 700, "unit": "unit/g"}, {"measurement": "Activity (unit/g) After storage", "setting": "[5]; [11]", "value": 340, "unit": "unit/g"}, {"measurement": "Percentage of residual activity (%)", "setting": "[5]; [11]", "value": 62, "unit": "%"}, {"measurement": "Activity (unit/g) Before storage", "setting": "[5]; [11]", "value": 550, "unit": "unit/g"}, {"measurement": "Activity (unit/g) After storage", "setting": "[5]; [12]", "value": 290, "unit": "unit/g"}, {"measurement": "Percentage of residual activity (%)", "setting": "[5]; [12]", "value": 69, "unit": "%"}, {"measurement": "Activity (unit/g) Before storage", "setting": "[5]; [12]", "value": 420, "unit": "unit/g"}, {"measurement": "Activity (unit/g) After storage", "setting": "[5]; [13]", "value": 280, "unit": "unit/g"}, {"measurement": "Percentage of residual activity (%)", "setting": "[5]; [13]", "value": 64, "unit": "%"}, {"measurement": "Activity (unit/g) Before storage", "setting": "[5]; [13]", "value": 390, "unit": "unit/g"}]}]}
